“And” between values parts separate entries of the source, which are not always exact repeats. Equal values may be shown once. Read-outs that look alike come from different tables or passages of the source.
Assay: 2-h oral plasma pharmacokinetics and tissue distribution, male wild-type and Oatp1a/1b−/− mice
Format: in vivo
Conditions: 10 mg/kg oral; for concentration at 2 h / Cmax / AUC(0-t) / Tmax / Kp at 2 h: mouse; for Cmax / AUC(0-t) / Tmax: plasma; for AUC(0-t): read-out: AUC0–2h; for Tmax: median (range); for Fold change (SIWC % of dose) / Fold change ratio (SIWC (%)-to-AUC0–2h) / Fold change ratio (SIWC (%)-to-plasma) / Fold change ratio (liver-to-plasma) / Fold increase CSIWC / Fold increase Cliver / Fold increase AUC0–2h: vs wild-type; for Kp at 2 h: male, po, read-out: Liver-to-plasma ratio
Source text: Mice with similar average ages (and body weights) were randomly allocated in experimental groups as far as possible. Mice were maintained in a temperature-controlled and specific pathogen-free environment with a 12-h light and 12-h dark cycle and they received a standard diet (Transbreed, SDS Diets, Technilab-BMI, Someren, The Netherlands) and acidified water ad libitum. […] Given the objective main readout (repotrectinib plasma and tissue concentrations as measured by LC-MS/MS), no blinding method was applied.
Repotrectinib was dissolved in dimethyl sulfoxide (DMSO) at a concentration of 50 mg/mL. This stock solution was first diluted 3-fold with ethanol/polysorbate 80 (1/1; v/v), followed by further dilution with a 10 mM hydrochloric acid solution, yielding a dosing solution of 1 mg/mL, freshly prepared on the day of experiment. Final concentrations of the solvents in the administration solution were: 2%, 2%, 2%, and 94% (all v/v) for DMSO, ethanol, polysorbate 80, and 10 mM hydrochloric acid solution, respectively.
To minimize variation in absorption upon oral administration, mice were fasted for 2–3 h before repotrectinib (10 mg/kg body weight) was administered by gavage into the stomach at 10 µL/g body weight, with a blunt-ended needle. Tail vein serial blood samples were collected at 0.125, 0.25, 0.5, 1, 2 and 4 h using heparinized capillary tubes (Sarstedt, Nümbrecht, Germany) for the 8-h experiments. For the 4- and 2-h experiments, blood samplings were performed from the tail vein with the same schedule, but terminated at 2 and 1 h, respectively. Eight, four, or two hours after oral administration, mice were deeply anesthetized with 2–3% isoflurane, followed by cardiac puncture to collect blood in Eppendorf tubes containing heparin as an anticoagulant. Brain, liver, spleen, kidney, lung, small intestine, and testis were rapidly collected after sacrificing the mice by cervical dislocation. The small intestinal contents (SIC) were separated from small intestinal tissue (SI), which was flushed and rinsed with cold saline to remove any residual feces. Brain, liver, spleen, kidney, lung, SI, SIC, and testis were homogenized with 1, 3, 1, 2, 1, 3, 2, and 1 mL of 2% BSA (w/v), respectively. Plasma fraction was isolated from blood by centrifugation at 9000× g for 6 min at 4 °C. All samples were stored at −30 °C until analysis.
A sensitive and specific liquid chromatography-tandem mass spectrometry method using protein precipitation pre-treatment was adopted to quantify the concentration of repotrectinib in DMEM medium, plasma samples and tissue homogenates.
A non-compartmental model using the PKSolver add-in program for Microsoft Excel was adopted to calculate the pharmacokinetic parameters of repotrectinib. Oral availability was assessed by the plasma area under the curve (AUC), calculated using repotrectinib plasma concentration-time curves with the linear trapezoidal rule without extrapolating the infinity. Statistical testing was performed in Graphpad Prism7 (Graphpad Software, La Jolla, CA, USA). All data are presented as geometric means ± SD. Heteroscedastic data were log-transformed before applying statistical analysis. When differences between two groups were compared, the two-sided unpaired Student’s t test was used. One-way analysis of variance (ANOVA) was applied when multiple groups were compared, and the Bonferroni post hoc correction was used to accommodate multiple testing. Differences were considered statistically significant when P < 0.05.

[1] = Oatp1a/1b−/− (>99% FVB background), male Oatp1a/1b−/− mice
[2] = male Oatp1a/1b−/− mice vs wild-type
[3] = wild-type (>99% FVB background), male wild-type mice

SMILES: C[C@H]1CNC(=O)c2cnn3ccc(nc23)N[C@H](C)c2cc(F)ccc2O1 [repotrectinib]
- concentration at 2 h (FVB, small intestine with content, male wild-type mice, read-out: CSIWC): 84700 ± 24100 ng/g
- concentration at 2 h (Oatp1a/1b−/− (>99% FVB background), liver, male Oatp1a/1b−/− mice, read-out: Cliver): 15300 ± 1600 ng/g
- Cmax [1]: 5380 ± 520 ng/mL
- AUC(0-t) [1]: 8960 ± 770 ng·h/mL
- Tmax [1]: 30 min
- concentration at 2 h (Oatp1a/1b−/− (>99% FVB background), small intestine with content, male Oatp1a/1b−/− mice, read-out: CSIWC): 121000 ± 29200 ng/g
- liver-to-plasma ratio, fold reduction [2]: 2.3 fold
- relative intestinal (SIWC) recovery corrected for plasma concentration, fold decrease [2]: 2.8 fold
- relative intestinal (SIWC) recovery corrected for plasma exposure (AUC0–2h), fold decrease [2]: 1.9 fold
- SIWC (% of dose) (male Oatp1a/1b−/− mice): 21.3 ± 3.7 % of dose
- SIWC (%)-to-AUC0–2h ratio (male Oatp1a/1b−/− mice): 2.40 ± 0.54 *** ·10^−3
- SIWC (%)-to-plasma ratio (male Oatp1a/1b−/− mice): 5.58 ± 1.09 *** ·10^−3
- Fold change (SIWC % of dose) (male Oatp1a/1b−/− mice): 1.22
- Fold change ratio (SIWC (%)-to-AUC0–2h) (male Oatp1a/1b−/− mice): 0.52
- Fold change ratio (SIWC (%)-to-plasma) (male Oatp1a/1b−/− mice): 0.35
- Fold change ratio (liver-to-plasma) (male Oatp1a/1b−/− mice): 0.44
- Fold increase CSIWC (male Oatp1a/1b−/− mice): 1.43
- Fold increase Cliver (male Oatp1a/1b−/− mice): 1.55
- Fold increase AUC0–2h (male Oatp1a/1b−/− mice, 10 mg/kg): 2.3 and 2.29
- SIWC (% of dose) (male wild-type mice): 17.4 ± 5.6 % of dose
- SIWC (%)-to-AUC0–2h ratio (male wild-type mice): 4.59 ± 1.04 ·10^−3
- SIWC (%)-to-plasma ratio (male wild-type mice): 15.8 ± 3.9 ·10^−3
- Fold change (SIWC % of dose) (male wild-type mice): 1.00
- Fold change ratio (SIWC (%)-to-AUC0–2h) (male wild-type mice): 1.00
- Fold change ratio (SIWC (%)-to-plasma) (male wild-type mice): 1.00
- Fold change ratio (liver-to-plasma) (male wild-type mice): 1.00
- Fold increase AUC0–2h (male wild-type mice): 1.00
- Fold increase CSIWC (male wild-type mice): 1.00
- Fold increase Cliver (male wild-type mice): 1.00
- Kp at 2 h (FVB, liver, 10 mg/kg, male Oatp1a/1b−/− mice): 4 ± 0.54
- Kp at 2 h (FVB, liver, 10 mg/kg, male wild-type mice): 9.16 ± 1.53
- concentration at 2 h (wild-type (>99% FVB background), liver, male wild-type mice, read-out: Cliver): 9840 ± 1160 ng/g
- Cmax [3]: 2640 ± 990 ng/mL
- AUC(0-t) [3]: 3920 ± 1290 ng·h/mL
- Tmax [3]: 30 min
